According to patent publication US12616685B2, “Concomitant administration of glucocorticoid receptor modulator relacorilant and CYP2C9 substrates” (Corcept Therapeutics Incorporated, priority 2020, dated 2026):

What was measured:
[1] = Clinical drug-drug interaction study in healthy volunteers (tolbutamide alone vs with relacorilant); details: for effect of relacorilant co-administration on AUC0-tz and AUCinf / reduction of Cmax on co-administration of relacorilant: 500 mg tolbutamide with 350 mg relacorilant vs tolbutamide alone; for AUC0-tz, Ratio of Geometric LSMs (%) / AUCinf, Ratio of Geometric LSMs (%) / Cmax, Ratio of Geometric LSMs (%): 100*(Test/Reference), Treatment E (with relacorilant) vs Treatment B (tolbutamide alone)
Protocol: An open-label, crossover study was conducted in healthy subjects to determine the effect of relacorilant on the plasma exposure of tolbutamide, a known substrate of CYP2C9. A single 500 mg dose of tolbutamide was administered alone and pharmacokinetic (PK) samples were collected before dosing (0 hour) and at 0.5, 1, 1.5, 2, 2.5, 3, 4, 6, 8, 12, 18, 24, 36, and 48 hours post-dose. Relacorilant (350 mg) was then administered once a day for 10 consecutive days. On the following day, a single 500 mg dose of tolbutamide was administered in combination with relacorilant 350 mg and pharmacokinetic (PK) samples were again collected at pre-dose through 48 hours post-dose at the same timepoints as described above. The plasma concentrations of tolbutamide and its metabolite, 4-hydroxy tolbutamide were evaluated by validated bioanalytical assays on each dosing occasion of tolbutamide.
• ANOVA, analysis of variance; AUCinf, AUC from time 0 extrapolated to infinity; AUC0-tz, AUC from time 0 until the time of the last measurable concentration; Cmax, maximum plasma concentration; CV %, coefficient of variation; LSM, least squares mean. • Treatment B: Single oral dose of 500 mg tolbutamide (Reference). • Treatment E: Single oral dose of 500 mg tolbutamide and 350 mg relacorilant administered on Day 15 followed by oral doses of 350 mg relacorilant administered QD on Days 16 and 17 (Test). • Parameters were ln-transformed prior to analysis. • Geometric Least Square means (LSMs) were calculated by exponentiating the LSMs from the ANOVA. • Ratio of Geometric LSMs=100*(Test/Reference); where Test is Treatment E and Reference is Treatment B.

CYP2C9 = CYP2C9 (Homo sapiens, UniProt P11712); test: biochemical
Sequence of CYP2C9 (P11712 whole entry): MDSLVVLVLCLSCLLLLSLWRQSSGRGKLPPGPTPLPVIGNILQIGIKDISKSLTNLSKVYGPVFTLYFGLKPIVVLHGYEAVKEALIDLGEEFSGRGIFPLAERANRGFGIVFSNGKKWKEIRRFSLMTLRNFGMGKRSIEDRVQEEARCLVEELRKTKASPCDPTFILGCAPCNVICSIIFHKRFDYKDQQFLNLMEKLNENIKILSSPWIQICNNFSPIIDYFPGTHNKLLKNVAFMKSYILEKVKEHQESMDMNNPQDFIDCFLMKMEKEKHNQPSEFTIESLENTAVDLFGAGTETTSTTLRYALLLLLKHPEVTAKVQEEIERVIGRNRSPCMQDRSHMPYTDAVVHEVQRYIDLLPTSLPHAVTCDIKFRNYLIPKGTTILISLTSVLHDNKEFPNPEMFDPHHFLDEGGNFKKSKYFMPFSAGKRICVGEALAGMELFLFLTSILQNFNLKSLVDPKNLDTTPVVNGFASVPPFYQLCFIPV
Protocol: Cytochrome P450 (CYP) isoforms CYP1A2, CYP2C9, CYP2C19, CYP2D6, and CYP3A4, heterologously expressed in E. coli, were obtained from Cypex and mixed to produce a 5-CYP mix. A selective and FDA accepted substrate for each isoform was present in the reaction at a concentration around its Km.
The 5-CYP mix and a CYP substrate cocktail were added and the tubes warmed for 3 minutes whilst mixing on a BioShake IQ (37° C., 1500 rpm). NADPH (final concentration 1 mM) was added and the mixture was incubated for 10 minutes. Methanol containing an internal standard (1 μM tolbutamide) was then added to all samples, and these were mixed and placed at −20° C. for ≥1 hour to quench the reaction and allow protein to precipitate.
All samples were centrifuged (2500×g, 20 minutes, 4° C.). The supernatants were transferred to a fresh 96 well plate, compatible with an autosampler. The plate was sealed with a pre-slit silicone mat and the metabolites were analyzed by LC-MS/MS. […]
The final concentration in the assay of the 5-CYP mix was 32.5 pmol/ml for each of the enzymes evaluated (i.e., CYP1A2, CYP2C9, CYP2C19, CYP2D6, and CYP3A4). […]
The metabolites measured were: CYP1A2, 1-hydroxytacrine; CYP2C9, 4′-hydroxy diclofenac; CYP2C19, 4′-hydroxymephenytoin; CYP2D6, hydroxybufuralol; CYP3A4, 1′hydroxymidazolam. […]

[2] = co-administered with CYP2C9 inhibitor sulfaphenazole, human subjects; Perkins et al. 2018; cited from earlier work
[3] = plasma, single oral 500 mg tolbutamide alone, healthy subjects
[4] = plasma, single oral 500 mg tolbutamide with 350 mg relacorilant after once-daily relacorilant, healthy subjects

Row | effect of relacorilant co-administration on AUC0-tz and AUCinf [1] | reduction of Cmax on co-administration of relacorilant [1] | AUC0-tz, Ratio of Geometric LSMs (%) [1] | AUCinf, Ratio of Geometric LSMs (%) [1] | Cmax, Ratio of Geometric LSMs (%) [1] | AUC0-tz, Geometric LSM, Reference (Day 2) Treatment B [1, 3] | AUCinf, Geometric LSM, Reference (Day 2) Treatment B [1, 3] | Cmax, Geometric LSM, Reference (Day 2) Treatment B [1, 3] | AUC0-tz, Geometric LSM, Test (Day 15) Treatment E [1, 4] | AUCinf, Geometric LSM, Test (Day 15) Treatment E [1, 4] | Cmax, Geometric LSM, Test (Day 15) Treatment E [1, 4] | IC50 (CYP2C9) | AUC(0-inf) ([1]; human, plasma, po, 500 mg) | AUC(0-t) ([1]; human, plasma, po, 500 mg) | Cmax ([1]; human, plasma, po, 500 mg) | SMILES | fold increase in plasma level of tolbutamide (AUC) with sulfaphenazole [2]
1 | no effect | approximately 37% | 88.80% | 89.91% | 63.49% | 8.619 µg·h/mL | 8.954 µg·h/mL | 604.3 ng/mL | 7.653 µg·h/mL | 8.051 µg·h/mL | 383.6 ng/mL | – | – | – | – | CCCCNC(=O)NS(=O)(=O)c1ccc(CO)cc1 [4-OH Tolbutamide, 4-hydroxy tolbutamide] | –
2 | – | – | – | – | – | – | – | – | – | – | – | 2100 nM | – | – | – | Cn1cc(S(=O)(=O)N2CCC3=Cc4c(cnn4-c4ccc(F)cc4)C[C@]3(C(=O)c3cc(C(F)(F)F)ccn3)C2)cn1 [Relacorilant, (R)-(1-(4-fluorophenyl)-6-((1-methyl-1H-pyrazol-4-yl)sulfonyl)-4,4a,5,6,7,8-hexahydro-1H-pyrazolo[3,4-g]isoquinolin-4a-yl)(4-(trifluoromethyl)pyridine-2-yl)methanone] | –
3 | no effect | approximately 31% | 89.11% | 89.54% | 69.22% | – | – | – | – | – | – | – | 602 µg·h/mL | 579 µg·h/mL | 42400 ng/mL | CCCCNC(=O)NS(=O)(=O)c1ccc(C)cc1 [Tolbutamide, tolbutamide, reference compound] | more than 5 fold
